pIC50: −log10 of the molar value. A value given as a limit tells only on which side of the number the result lay.

The assay deals with T1, P70S6K (T412E mutant, Millipore) (Homo sapiens, UniProt P23443, T412E).
T1 construct: purchased Millipore
T1 sequence (P23443 whole entry T412E): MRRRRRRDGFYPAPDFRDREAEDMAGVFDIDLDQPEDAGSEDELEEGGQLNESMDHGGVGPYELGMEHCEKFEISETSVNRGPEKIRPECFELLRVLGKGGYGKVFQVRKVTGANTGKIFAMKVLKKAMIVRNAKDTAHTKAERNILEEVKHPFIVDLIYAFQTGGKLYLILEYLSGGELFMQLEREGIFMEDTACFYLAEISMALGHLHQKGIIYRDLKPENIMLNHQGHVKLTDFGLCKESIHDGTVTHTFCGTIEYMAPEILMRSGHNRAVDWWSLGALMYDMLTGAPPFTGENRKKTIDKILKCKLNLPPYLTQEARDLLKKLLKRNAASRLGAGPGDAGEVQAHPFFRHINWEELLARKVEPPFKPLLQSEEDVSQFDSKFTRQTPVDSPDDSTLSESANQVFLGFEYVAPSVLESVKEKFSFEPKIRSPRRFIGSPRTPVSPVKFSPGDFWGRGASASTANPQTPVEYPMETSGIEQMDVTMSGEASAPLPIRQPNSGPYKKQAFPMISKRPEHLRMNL
Put plainly: p70S6K enzyme assay. The following applies: class symbol; 3 nM P70S6K, 24 μM ATP; read-out: IC50 (p70S6K). It counts as biochemical. The gist of the method: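 T412E-mutant P70S6K (3 nM) with 24 μM ATP and 1 μM FITC-AHA-AKRRRLSSLRA-OH S6-derived peptide in 100 mM Hepes pH 7.5, 5 mM MgCl2, 1 mM DTT, 0.015% Brij; 90 min at 25° C, EDTA stop. Phosphorylated product and substrate peptide separated and quantified by microfluidic capillary electrophoresis (Caliper LabChip 3000).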
Usually pIC50 stands for the IC50 on a negative log10 scale, so that one unit is a factor of ten. For the compound `O=C(NCc1cn(Cc2ccccc2)nn1)c1sccc1Nc1ccnc2[nH]ccc12` [Example 101, 3-(1H-Pyrrolo[2,3-b]pyridin-4-ylamino)-thiophene-2-carboxylic acid (1-benzyl-1H-[1,2,3]triazol-4-ylmethyl)-amide], the negative logarithm of the IC50 (pIC50) was 6.00 to 7.00.

Turning to `CC(C)(C)OC(=O)N1CCC(NC(=O)c2ccsc2Nc2ccnc3[nH]ccc23)C1` (centres unmarked) [Example 102, 3-{[2-(1H-Pyrrolo[2,3-b]pyridin-4-ylamino)-thiophene-3-carbonyl]-amino}-pyrrolidine-1-carboxylic acid tert-butyl ester], the pIC50 was 6.00 to 7.00.

Take `O=C(NC1CCNC1)c1ccsc1Nc1ccnc2[nH]ccc12` (centres unmarked) [Example 103, 2-(1H-Pyrrolo[2,3-b]pyridin-4-ylamino)-thiophene-3-carboxylic acid pyrrolidin-3-ylamide]: the pIC50 is over 7.00.

For `CC(C)(C)OC(=O)N1CCCC(NC(=O)c2ccsc2Nc2ccnc3[nH]ccc23)C1` (centres unmarked) [Example 104, 3-{[2-(1H-Pyrrolo[2,3-b]pyridin-4-ylamino)-thiophene-3-carbonyl]-amino}-piperidine-1-carboxylic acid tert-butyl ester], the pIC50 is 6.00 to 7.00.

Turning to `O=C(NC1CCCNC1)c1ccsc1Nc1ccnc2[nH]ccc12` (centres unmarked) [Example 105, 2-(1H-Pyrrolo[2,3-b]pyridin-4-ylamino)-thiophene-3-carboxylic acid piperidin-3-ylamide], the pIC50 is over 7.00.

On to `NCC(NC(=O)c1sccc1Nc1ccnc2[nH]ccc12)c1cccc(F)c1` (centres unmarked) [Example 106, 3-(1H-Pyrrolo[2,3-b]pyridin-4-ylamino)-thiophene-2-carboxylic acid [2-amino-1-(3-fluoro-phenyl)-ethyl]-amide], for which the pIC50 was over 7.00.

`COc1ccccc1C(CN)NC(=O)c1sccc1Nc1ccnc2[nH]ccc12` (centres unmarked) [Example 107, 3-(1H-Pyrrolo[2,3-b]pyridin-4-ylamino)-thiophene-2-carboxylic acid [2-amino-1-(2-methoxy-phenyl)-ethyl]-amide]: the pIC50 was over 7.00.

`NCC(NC(=O)c1ccsc1Nc1ccnc2[nH]ccc12)c1cccc(F)c1` (centres unmarked) [Example 108, 2-(1H-Pyrrolo[2,3-b]pyridin-4-ylamino)-thiophene-3-carboxylic acid [2-amino-1-(3-fluoro-phenyl)-ethyl]-amide]: the negative-log IC50 (pIC50) is over 7.00.

As for `COc1ccccc1C(CN)NC(=O)c1ccsc1Nc1ccnc2[nH]ccc12` (centres unmarked) [Example 109, 2-(1H-Pyrrolo[2,3-b]pyridin-4-ylamino)-thiophene-3-carboxylic acid [2-amino-1-(2-methoxy-phenyl)-ethyl]-amide], the pIC50 is over 7.00.

With `COc1ccc(C(CN)NC(=O)c2ccsc2Nc2ccnc3[nH]ccc23)cc1OC` (centres unmarked) [Example 110, 2-(1H-Pyrrolo[2,3-b]pyridin-4-ylamino)-thiophene-3-carboxylic acid [2-amino-1-(3,4-dimethoxy-phenyl)-ethyl]-amide], the pIC50 is over 7.00.

`Nc1cccc(CNC(=O)c2ccsc2Nc2ccnc3[nH]ccc23)c1` [Example 111, 2-(1H-Pyrrolo[2,3-b]pyridin-4-ylamino)-thiophene-3-carboxylic acid 3-amino-benzylamide]: the pIC50 is over 7.00.

With `O=C(NCc1ccccc1)c1ccsc1Nc1ccnc2[nH]ccc12` [Example 112, 2-(1H-Pyrrolo[2,3-b]pyridin-4-ylamino)-thiophene-3-carboxylic acid benzylamide], the pIC50 was over 7.00.

Take `COc1ccc(C(CN)NC(=O)c2sccc2Nc2ccnc3[nH]ccc23)cc1OC` (centres unmarked) [Example 113, 3-(1H-Pyrrolo[2,3-b]pyridin-4-ylamino)-thiophene-2-carboxylic acid [2-amino-1-(3,4-dimethoxy-phenyl)-ethyl]-amide]: the pIC50 is over 7.00.

With `[N-]=[N+]=NC[C@@H](NC(=O)c1ccsc1Nc1ccnc2[nH]ccc12)c1ccccc1` [Example 114, 2-(1H-Pyrrolo[2,3-b]pyridin-4-ylamino)-thiophene-3-carboxylic acid ((S)-2-azido-1-phenyl-ethyl)-amide], the pIC50 is over 7.00.

Source of the values: patent US9023847B2, “Azaheterocyclic compounds” (Merck Patent GmbH, priority 2009, dated 2015).
